Measured values reported in US6485929B1, “Method for inhibiting CD95-independent apoptosis in AIDS” (Deutsches Krebsforschungzentrum Stiftung des offentlichen …, priority 1998, dated 2002).

System: HPB-ALL cells
Experiment: Inhibition of CD95-independent apoptosis induced by anti-CXCR4 antibody (12G5) in HPB-ALL cells
Format: cell-based
Settings: HPB-ALL cells incubated with 250 nM SDF-1α at 37° C. for 30 minutes, then induction with anti-CXCR4 antibody 12G5
Protocol: 1×10^5 HPB-ALL cells are incubated with 5 μg/ml mouse anti-CD4 antibody (HP2/6) and mouse anti CXCR4 antibody (12G5), respectively, at 37° C. for 15 minutes. Then, the bound antibodies are reacted with sheep anti-mouse antibodies (100 μg/ml, Boehringer). Apoptosis detection is carried out in which an FSC/SSC analysis is run in an FACScan cytometer at various times (cf. FIG. 1). HPB-ALL cells are incubated with 250 nM SDF-1α at 37° C. for 30 minutes. The cells are then subjected to an apoptosis induction using the mouse anti-CXCR4 antibody (12G5), as described above under item I. (a).

## SDF-1α
  Prevention of induction of CD95-independent apoptosis: can be prevented
